Earlier results as cited in patent US20030013726A1 (priority 2000, published 2003).

Tested on: patients with disorders of initiating sleep

SMILES: CCN(C(C)=O)c1cccc(-c2ccnc3c(C#N)cnn23)c1 [zaleplon]
- sleep stages 3 and 4 (delta sleep and deep sleep) (clinical studies): not impaired
- effectiveness for patients with disorders of initiating sleep (clinical study on more than 3 700 patients in the USA, Canada and Europe, including elderly people 65-85 years): very effective
- sleep latency estimated both by polysomnography and subjectively (compared with placebo, clinical studies): significantly reduced
